The values below come from patent US11708348B2, “Protease inhibitors for treatment of coronavirus infections” (The Scripps Research Institute, priority 2021, dated 2023).

Where only a bound is given, the exact number is not on record here.

The first experiment concerns SARS-CoV-2 strain USA-WA1/2020. Put plainly: microbe, parasite or virus in culture. Conditions: Severe acute respiratory syndrome coronavirus 2, HeLa-ACE2, 24 h, HeLa-ACE2 cells, SARS-CoV-2 infection, 24 h; class symbols; read-out: EC50, uM (Hela). Type of experiment: cell-based.
For the compound `CC(C)(C)C[C@H](NC(=O)C(=O)NC1CC(F)(F)C1)C(=O)N[C@@H](C[C@@H]1CCNC1=O)C(=O)COC(F)(F)F` [Compound 179, Nl-(3,3-difluorocyclobutyl)-N2-((S)-4,4-dimethyl-1-oxo-1-(((S)-3-oxo-1-((S)-2-oxopyrrolidin-3-yl)-4-(trifluoromethoxy)butan-2-yl)amino)pentan-2-yl)oxalamide], the EC50 was below 0.05 µM.
The same measure, in the same setting: then `CC(C)C[C@H](NC(=O)C(=O)Nc1ccccc1F)C(=O)N[C@@H](C[C@@H]1CCCNC1=O)C(=O)COc1c(F)c(F)cc(F)c1F` [Compound 129, N1-(2-fluorophenyl)-N2-((S)-4-methyl-1-oxo-1-(((S)-3-oxo-1-((S)-2-oxopiperidin-3-yl)-4-(2,3,5,6-tetrafluorophenoxy)butan-2-yl)amino)pentan-2-yl)oxalamide], with below 0.05 µM.
On the same count and under the same terms, then `CC(C)C[C@H](NC(=O)C1CCN(C(=O)C2CCCC2)CC1)C(=O)N[C@@H](C[C@@H]1CCNC1=O)C(=O)COc1c(F)c(F)cc(F)c1F` [Compound 25, l-(cyclopentane-carbonyl)-N-((S)-4-methyl-1-oxo-1-(((S)-3-oxo-1-((S)-2-oxopyrrolidin-3-yl)-4-(2,3,5,6-tetrafluorophenoxy)butan-2-yl)amino)pentan-2-yl)piperidine-4-carboxamide], with 0.5 to 1 µM.
Consider `CC[C@@H](O)C(=O)N1[C@H](C(=O)N[C@@H](C[C@@H]2CCNC2=O)C(=O)COC(F)(F)F)C[C@@H]2CCC[C@@H]21` [Compound 374, (2S,3aS,6aS)-1-((R)-2-hydroxybutanoyl)-N-((S)-3-oxo-1-((S)-2-oxopyrrolidin-3-yl)-4-(trifluoromethoxy)butan-2-yl)octahydrocyclo-penta[b]pyrrole-2-carboxamide], for which the EC50 lay in the range of 0.5 to 1 µM.
Still for that read-out and setting: the result for `CC(C)C[C@H](NC(=O)C(=O)Nc1ccccc1Br)C(=O)N[C@@H](C[C@@H]1CCNC1=O)C(=O)COc1c(F)c(F)cc(F)c1F` [Compound 56, N1-(2-bromophenyl)-N2-((S)-4-methyl-1-oxo-1-(((S)-3-oxo-1-((S)-2-oxopyrrolidin-3-yl)-4-(2,3,5,6-tetrafluorophenoxy)butan-2-yl)amino)pentan-2-yl)oxalamide] reads 0.05 to 0.2 µM; that for `CC(C)C[C@H](NC(=O)[C@H](O)C(C)(C)C)C(=O)N[C@@H](C[C@@H]1CCNC1=O)C(=O)COC(F)(F)F` [Compound 341, (S)-2-((R)-2-hydroxy-3,3-dimethylbutanamido)-4-methyl-N-((S)-3-oxo-1-((S)-2-oxopyrrolidin-3-yl)-4-(trifluoromethoxy)butan-2-yl)pentanamide], 0.05 to 0.2 µM.
For `COCc1ccccc1NC(=O)C(=O)N[C@@H](CC(C)C)C(=O)N[C@@H](C[C@@H]1CCNC1=O)C(=O)COc1c(F)c(F)cc(F)c1F` [Compound 143, N1-(2-(methoxymethyl)phenyl)-N2-((S)-4-methyl-1-oxo-1-(((S)-3-oxo-1-((S)-2-oxopyrrolidin-3-yl)-4-(2,3,5,6-tetrafluorophenoxy)butan-2-yl)amino)pentan-2-yl)oxalamide], the EC50 lay within 0.05 to 0.2 µM.
For `CC(C)C[C@H](NC(=O)C12CC(C(F)(F)F)(CO1)C2)C(=O)N[C@@H](C[C@@H]1CCNC1=O)C(=O)COC(F)(F)F` [Compound 316, N-((S)-4-methyl-1-oxo-1-(((S)-3-oxo-1-((S)-2-oxopyrrolidin-3-yl)-4-(trifluoromethoxy)butan-2-yl)amino)pentan-2-yl)-4-(trifluoromethyl)-2-oxabicyclo-[2.1.1]hexane-1-carboxamide], the EC50 is below 0.05 µM.
The same measure, in the same setting: the result for `CCc1ccccc1NC(=O)C(=O)N[C@@H](CC(C)C)C(=O)N[C@@H](C[C@@H]1CCNC1=O)C(=O)COc1c(F)c(F)cc(F)c1F` [Compound 63, N1-(2-ethylphenyl)-N2-((S)-4-methyl-1-oxo-1-(((S)-3-oxo-1-((S)-2-oxopyrrolidin-3-yl)-4-(2,3,5,6-tetrafluorophenoxy)butan-2-yl)amino)pentan-2-yl)oxalamide] reads below 0.05 µM; that for `CC(C)C[C@H](NC(=O)[C@H](O)Cc1ccccc1)C(=O)N[C@@H](C[C@@H]1CCNC1=O)C(=O)COC(F)(F)F` [Compound 207, (S)-2-((R)-2-hydroxy-3-phenylpropanamido)-4-methyl-N-((S)-3-oxo-1-((S)-2-oxopyrrolidin-3-yl)-4-(trifluoromethoxy)butan-2-yl)pentanamide], below 0.05 µM.

Still in this experiment, the particulars now being: Severe acute respiratory syndrome coronavirus 2, HeLa-ACE2, 24 h, HeLa-ACE2 cells, SARS-CoV-2 infection, 24 h; given as bound; read-out: EC50, uM (Hela).
For the compound `CC(=O)N[C@H](C(=O)N1CC2(CC2)C[C@H]1C(=O)N[C@@H](C[C@@H]1CCNC1=O)C(=O)COC(F)(F)F)C(C)(C)C` [Compound 436, (S)-5-((S)-2-acetamido-3,3-dimethylbutanoyl)-N-((S)-3-oxo-1-((S)-2-oxopyrrolidin-3-yl)-4-(trifluoromethoxy)butan-2-yl)-5-azaspiro[2.4]heptane-6-carboxamide], the 50% effective concentration (EC50) is above 1 µM.

The same experiment, now with this note: Severe acute respiratory syndrome coronavirus 2, HeLa-ACE2, 24 h, HeLa-ACE2 cells, SARS-CoV-2 infection, 24 h; read-out: EC50, uM (Hela).
On to `CC1(C)[C@@H]2[C@@H](C(=O)N[C@@H](C[C@@H]3CCNC3=O)C(=O)COC(F)(F)F)N(C(=O)c3csc(C(F)(F)F)n3)C[C@@H]21` [Compound 468, (1R,2S,5S)-6,6-dimethyl-N-((S)-3-oxo-1-((S)-2-oxopyrrolidin-3-yl)-4-(trifluoromethoxy)butan-2-yl)-3-(2-(trifluoromethyl)-thiazole-4-carbonyl)-3-azabicyclo[3.1.0]-hexane-2-carboxamide], for which the EC50 lay in the range of 0.05 to 0.2 µM.
Same read-out and setting: the result for `C[C@H](C(=O)N1C[C@H]2[C@@H]([C@H]1C(=O)N[C@@H](C[C@@H]1CCNC1=O)C(=O)COC(F)(F)F)C2(C)C)c1ccccc1` [Compound 629, (1R,2S,5S)-6,6-dimethyl-N-((S)-3-oxo-1-((S)-2-oxopyrrolidin-3-yl)-4-(trifluoromethoxy)butan-2-yl)-3-((S)-2-phenylpropanoyl)-3-azabicyclo[3.1.0]hexane-2-carboxamide] reads below 0.05 µM.
Same read-out and setting: the result for `CC1(NC(=O)C(=O)N2C[C@H]3[C@@H]([C@H]2C(=O)N[C@@H](C[C@@H]2CCNC2=O)C(=O)COC(F)(F)F)C3(C)C)CC1` [Compound 469, (1R,2S,5S)-6,6-dimethyl-3-(2-((l-methylcyclopropyl)-amino)-2-oxoacetyl)-N-((S)-3-oxo-1-((S)-2-oxopyrrolidin-3-yl)-4-(trifluoromethoxy)butan-2-yl)-3-azabicyclo[3.1.0]-hexane-2-carboxamide] reads 0.05 to 0.2 µM.
The same measure, in the same setting: the result for `CCNC(=O)C(=O)N1CC2(CC2)C[C@H]1C(=O)N[C@@H](C[C@@H]1CCNC1=O)C(=O)COC(F)(F)F` [Compound 749, (S)-5-(2-(ethylamino)-2-oxoacetyl)-N-((S)-3-oxo-1-((S)-2-oxopyrrolidin-3-yl)-4-(trifluoromethoxy)butan-2-yl)-5-azaspiro[2.4]heptane-6-carboxamide] reads 0.05 to 0.2 µM; that for `O=C(N[C@@H](CC1CCC1)C(=O)N[C@@H](C[C@@H]1CCNC1=O)C(=O)COC(F)(F)F)C(=O)NC12CC(F)(C1)C2` [Compound 565, N1-((S)-3-cyclobutyl-1-oxo-1-(((S)-3-oxo-1-((S)-2-oxopyrrolidin-3-yl)-4-(trifluoromethoxy)butan-2-yl)amino)propan-2-yl)-N2-(3-fluorobicyclo[1.1.1]-pentan-1-yl)oxalamide], below 0.05 µM; that for `O=C(Nc1cc(F)ccc1F)C(=O)N1CC2(CC2)C[C@H]1C(=O)N[C@@H](C[C@@H]1CCNC1=O)C(=O)COC(F)(F)F` [Compound 602, (S)-5-(2-((2,5-difluorophenyl)amino)-2-oxoacetyl)-N-((S)-3-oxo-1-((S)-2-oxopyrrolidin-3-yl)-4-(trifluoromethoxy)butan-2-yl)-5-azaspiro[2.4]heptane-6-carboxamide], below 0.05 µM.
As to `O=C(NCC(F)F)C(=O)N1C[C@@H]2CCC[C@@H]2[C@H]1C(=O)N[C@@H](C[C@@H]1CCNC1=O)C(=O)COC(F)(F)F` [Compound 519, (1S,3aR,6aS)-2-(2-((2,2-difluoroethyl)amino)-2-oxoacetyl)-N-((S)-3-oxo-1-((S)-2-oxopyrrolidin-3-yl)-4-(trifluoromethoxy)butan-2-yl)octahydrocyclo-penta[c]pyrrole-1-carboxamide], the EC50 was 0.2 to 0.5 µM.
The same measure, in the same setting: the result for `[2H]C([2H])([2H])CCC(=O)N1CC2(CC2)C[C@H]1C(=O)N[C@@H](C[C@@H]1CCNC1=O)C(=O)COC(F)(F)F` [Compound 764, (S)-5-(butanoyl-4,4,4-d3)-N-((S)-3-oxo-1-((S)-2-oxopyrrolidin-3-yl)-4-(trifluoromethoxy)butan-2-yl)-5-azaspiro[2.4]heptane-6-carboxamide] reads 0.05 to 0.2 µM.
Still for that read-out and setting: then `O=C1NCC[C@H]1C[C@H](NC(=O)[C@@H]1C[C@@H](c2ccccc2)CN1C(=O)[C@@H](O)c1ccccc1)C(=O)COC(F)(F)F` [Compound 780, (2S,4S)-1-((S)-2-hydroxy-2-phenylacetyl)-N-((S)-3-oxo-1-((S)-2-oxopyrrolidin-3-yl)-4-(trifluoromethoxy)butan-2-yl)-4-phenylpyrrolidine-2-carboxamide], with below 0.05 µM; and `CC(C)(C)C[C@H](NC(=O)C(=O)NCC(F)(F)F)C(=O)N[C@@H](C[C@@H]1CCNC1=O)C(=O)COC(F)(F)F` [Compound 505, N1-((S)-4,4-dimethyl-1-oxo-1-(((S)-3-oxo-1-((S)-2-oxopyrrolidin-3-yl)-4-(trifluoromethoxy)butan-2-yl)amino)pentan-2-yl)-N2-(2,2,2-trifluoroethyl)-oxalamide], with below 0.05 µM.
Still for that read-out and setting: the result for `COc1cccc(NC(=O)C(=O)N2CC3(CC3)C[C@H]2C(=O)N[C@@H](C[C@@H]2CCNC2=O)C(=O)COC(F)(F)F)c1F` [Compound 599, (S)-5-(2-((2-fluoro-3-methoxyphenyl)amino)-2-oxoacetyl)-N-((S)-3-oxo-1-((S)-2-oxopyrrolidin-3-yl)-4-(trifluoromethoxy)butan-2-yl)-5-azaspiro[2.4]heptane-6-carboxamide] reads below 0.05 µM.

A word on the EC50: it is the concentration at which the effect is half-maximal.
